Laboratory results taken from publication PMC11973503 (2024).

Assays:
[1] = test system: Seq 5 dsRNA (RNA, duplex) GCGCCCGC/GCGGGCGC; assay: thermal melting; details: 100 mM KCl; 10 mM HEPES pH not given, 0.4 mM EDTA; 5 µM duplex; ligand 1:10 per base pair
[2] = test system: Poly dA ⋅ Poly dT (DNA, polymer) A/T; assay: thermal melting; details: 100 mM KCl, derived from two Tm, 10 mM HEPES, 0.4 mM EDTA, ligand 1:10 per base pair
[3] = test system: Seq 4 (GCGGGGGC)2 (DNA, duplex) GCGGGGGC/GCCCCCGC; assay: fluorescence increase (ΔF), plate reader; details: 50 mM NaCl; 10 mM sodium cacodylate, 0.5 mM EDTA, pH 6.0; 1 µM duplex, 1:1 ligand
[4] = test system: Seq 2 (CCCCGGGG)2 (DNA, duplex) CCCCGGGG; assay: fluorescence increase (ΔF), plate reader; details: 50 mM NaCl; 10 mM sodium cacodylate, 0.5 mM EDTA, pH 6.0; 1 µM duplex, 1:1 ligand
[5] = test system: HTG DNA (human telomeric G-quadruplex), d[AG3(T2AG3)3] (DNA, G4) AGGGTTAGGGTTAGGGTTAGGG; assay: thermal melting; details: 100 mM KCl; derived from two Tm; 10 mM HEPES, 0.4 mM EDTA; 5 µM DNA; ligand to HTG 2.2:1
[6] = test system: Seq 6 dsDNA (5'-CTTCGATAGTG) (DNA, duplex) CTTCGATAGTG/CACTATCGAAG; assay: thermal melting; details: 100 mM KCl; derived from two Tm; 10 mM HEPES, 0.4 mM EDTA; ligand 1:10 per base pair
[7] = test system: Seq 3 (GGGGCGGG)2 (DNA, duplex) GGGGCGGG/CCCGCCCC; assay: fluorescence increase (ΔF), plate reader; details: 50 mM NaCl; 10 mM sodium cacodylate, 0.5 mM EDTA, pH 6.0; 1 µM duplex, 1:1 ligand
[8] = test system: Seq 1 (GGGGCCCC)2 (DNA, duplex) GGGGCCCC; assay: fluorescence increase (ΔF), plate reader; details: 50 mM NaCl; 10 mM sodium cacodylate, 0.5 mM EDTA, pH 6.0; 1 µM duplex, 1:1 ligand
[9] = test system: Poly rA ⋅ Poly rU (RNA, polymer) A/U; assay: thermal melting; details: 100 mM KCl, derived from two Tm, 10 mM HEPES, 0.4 mM EDTA, ligand 1:10 per base pair
[10] = test system: Seq 5 dsDNA (5'-GCGCCCGC) (DNA, duplex) GCGCCCGC/GCGGGCGC; assay: thermal melting; details: 100 mM KCl; 10 mM HEPES pH not given, 0.4 mM EDTA; 5 µM duplex; ligand 1:10 per base pair
[11] = test system: Seq 5 dsDNA (DNA, duplex) GCGCCCGC/GCGGGCGC; assay: thermal melting; details: 100 mM KCl; 10 mM HEPES, 0.4 mM EDTA; 5 μM duplex, ligand 1:10 per base pair; Tm without ligand 54±0.7
[12] = test system: Poly rA ⋅ Poly rU (RNA, polymer) A/U; assay: thermal melting; details: 100 mM KCl; 10 mM HEPES, 0.4 mM EDTA; 5 μM duplex, ligand 1:10 per base pair; Tm without ligand 58±0.4
[13] = test system: Seq 6 dsDNA (DNA, duplex) CTTCGATAGTG/CACTATCGAAG; assay: thermal melting; details: 100 mM KCl; 10 mM HEPES, 0.4 mM EDTA; 5 μM duplex, ligand 1:10 per base pair; Tm without ligand 45±1.1
[14] = test system: Seq 6 dsDNA (5'-CTTCGATAGTG) (DNA, duplex) CTTCGATAGTG/CACTATCGAAG; assay: fluorescence quantum yield titration; details: 100 mM KCl; 10 mM HEPES pH 7, 0.4 mM EDTA, 25 °C
[15] = test system: HTG DNA (DNA, G4) AGGGTTAGGGTTAGGGTTAGGG; assay: thermal melting; details: 100 mM KCl; 10 mM HEPES, 0.4 mM EDTA; ligand to HTG 2.2:1; Tm without ligand 57±1.9
[16] = test system: Poly dA ⋅ Poly dT (DNA, polymer) A/T; assay: thermal melting; details: 100 mM KCl; 10 mM HEPES, 0.4 mM EDTA; 5 μM duplex, ligand 1:10 per base pair; Tm without ligand 72±1.0

Row | SMILES | Tm increase [1] [°C] | ΔTm [2] [°C] | binding [3] | binding [4] | ΔTm [5] [°C] | ΔTm [6] [°C] | binding [7] | binding [8] | ΔTm [9] [°C] | Tm increase [10] [°C] | Tm [11] [°C] | Tm [12] [°C] | Tm [13] [°C] | binding [14] | Tm [15] [°C] | Tm [16] [°C]
1 | CN1C(=Cc2cc[n+](CCCCC(=O)NCCSC[C@H]3O[C@@H](O[C@@H]4[C@@H](O)[C@H](N)C[C@H](N)[C@H]4O[C@H]4O[C@H](CN)[C@@H](O)[C@H](O)[C@H]4N)[C@H](O)[C@@H]3O[C@H]3O[C@@H](CN)[C@@H](O)[C@H](O)[C@H]3N)c3ccccc23)Sc2ccccc21 | 11 | 1 | yes | yes | 10 | 13 | yes | yes | 21 | 10.8 |  |  |  |  |  | 
2 | CN1C(=Cc2cc[n+](C)c3ccccc23)Sc2ccccc21 |  |  |  |  |  |  |  |  |  |  | 54±1.6 | 58±1.1 | 52±1.0 | yes | 61±1.2 | 73±0.3
3 | CN1C(=Cc2cc[n+](CCCCC(=O)NC[C@H]3O[C@@H](O[C@@H]4[C@@H](O)[C@H](N)C[C@H](N)[C@H]4O[C@H]4O[C@H](CN)[C@@H](O)[C@H](O)[C@H]4N)[C@H](O)[C@@H]3O[C@H]3O[C@@H](CN)[C@@H](O)[C@H](O)[C@H]3N)c3ccccc23)Sc2ccccc21 | 9.7 | 0 | yes | yes | 8 | 9 | yes | yes | 13 | 13.8 |  |  |  |  |  | 
